Assay results: patent US11226337B2, “Chemoproteomic profiling of protein electrophilic and oxidative post-translational modifications” (Zenagem, LLC, priority 2017, dated 2022)

Tests used:
[1] = molecular target: T1, ALDH9A1 4trimethylaminobutyraldehyde (P49189) (Homo sapiens, UniProt P49189); test: SILAC RP-ABPP; type: cell-based; details: SILAC H/L, HEK293T
T1 construct: shared by both the endogenous and recombinant forms of these proteins; endogenous in cells; host or cells: HEK293T and MDA-MB-231
Outline: (§1)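 Heavy SILAC HEK293T or MDA-MB-231 cells were treated with hydrazine probe 1 (3 mM, 0.5 h); light cells received non-clickable hydrazine 3 at the same concentration (enrichment) or probe plus 10× competitor 3 (competition). Lysates were mixed, clicked to biotin-azide and analysed by LC-MS; values are median heavy:light peptide ratios averaged over ≥3 replicates.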

[2] = molecular target: T2, BLMH Bleomycin hydrolase (Q13867) (Homo sapiens, UniProt Q13867); test: SILAC RP-ABPP; type: cell-based; details: SILAC H/L, HEK293T
T2 construct: In Situ Labelling of Cells with Hydrazine Probes for MS Experiments; endogenous in cells
Outline: as §1

[3] = molecular target: T3, CPVL Probable serine carboxypeptidase CPVL (Q9H3G5) (Homo sapiens, UniProt Q9H3G5); test: SILAC RP-ABPP; type: cell-based; details: SILAC H/L, HEK293T
T3 construct: shared by both the endogenous and recombinant forms of these proteins; endogenous in cells; host or cells: HEK293T and MDA-MB-231
Outline: as §1

[4] = molecular target: T4, GLA Alphagalactosidase A (P06280) (Homo sapiens, UniProt P06280); test: SILAC RP-ABPP; type: cell-based; details: SILAC H/L, HEK293T
T4 construct: shared by both the endogenous and recombinant forms of these proteins; endogenous in cells; host or cells: HEK293T and MDA-MB-231
Outline: as §1

[5] = molecular target: T5, NSFL1C NSFL1 cofactor p47 (Q9UNZ2) (Homo sapiens, UniProt Q9UNZ2); test: SILAC RP-ABPP; type: cell-based; details: SILAC H/L, MDA-MB-231
T5 construct: In Situ Labelling of Cells with Hydrazine Probes for MS Experiments; endogenous in cells
Outline: as §1

[6] = molecular target: T6, PPA2 Inorganic pyrophosphatase 2 (Q9H2U2) (Homo sapiens, UniProt Q9H2U2); test: SILAC RP-ABPP; type: cell-based; details: SILAC H/L, HEK293T
T6 construct: In Situ Labelling of Cells with Hydrazine Probes for MS Experiments; endogenous in cells
Outline: as §1

[7] = molecular target: T7, PITRM1 Presequence protease mitochondrial (Q5JRX3) (Homo sapiens, UniProt Q5JRX3); test: SILAC RP-ABPP; type: cell-based; details: SILAC H/L, MDA-MB-231
T7 construct: In Situ Labelling of Cells with Hydrazine Probes for MS Experiments; endogenous in cells
Outline: as §1

[8] = molecular target: T8, VAPA Vesicleassociated membrane (Q9P0L0) (Homo sapiens, UniProt Q9P0L0); test: SILAC RP-ABPP; type: cell-based; details: SILAC H/L, MDA-MB-231
T8 construct: In Situ Labelling of Cells with Hydrazine Probes for MS Experiments; endogenous in cells
Outline: as §1

[9] = molecular target: T9, CCBL2 Kynurenine oxoglutarate transaminase (Q6YP21) (Homo sapiens, UniProt Q6YP21); test: SILAC RP-ABPP; type: cell-based; details: SILAC H/L, HEK293T
T9 construct: shared by both the endogenous and recombinant forms of these proteins; endogenous in cells; host or cells: HEK293T and MDA-MB-231
Outline: as §1

[10] = molecular target: T10, IRS4 Insulin receptor substrate 4 (O14654) (Homo sapiens, UniProt O14654); test: SILAC RP-ABPP; type: cell-based; details: SILAC H/L, HEK293T
T10 construct: In Situ Labelling of Cells with Hydrazine Probes for MS Experiments; endogenous in cells
Outline: as §1

[11] = molecular target: T11, APP Amyloid beta A4 protein (P05067) (Homo sapiens, UniProt P05067); test: SILAC RP-ABPP; type: cell-based; details: SILAC H/L, MDA-MB-231
T11 construct: shared by both the endogenous and recombinant forms of these proteins; endogenous in cells; host or cells: HEK293T and MDA-MB-231
Outline: as §1

[12] = molecular target: T12, DCUN1D5 DCN1like protein 5 (Q9BTE7) (Homo sapiens, UniProt Q9BTE7); test: SILAC RP-ABPP; type: cell-based; details: SILAC H/L, HEK293T
T12 construct: shared by both the endogenous and recombinant forms of these proteins; endogenous in cells; host or cells: HEK293T and MDA-MB-231
Outline: as §1

[13] = molecular target: T13, THBS1 Thrombospondin1 (P07996) (Homo sapiens, UniProt P07996); test: SILAC RP-ABPP; type: cell-based; details: SILAC H/L, MDA-MB-231
T13 construct: In Situ Labelling of Cells with Hydrazine Probes for MS Experiments; endogenous in cells
Outline: as §1

[14] = system: lung, brain and liver tissue; test: in vivo probe labelling, in-gel fluorescence of tissue proteomes; parameters: species or system mice; details: i.p., four hours; soluble and membrane proteomes
Description: Studies were conducted to determine whether probes can be used to label proteins in vivo. Mice were injected intraperitoneally (i.p,) with hydrazine probe 2. After treatment with probes for four hours, lung, brain and liver tissue was harvested, processed and labeled with rhodamine azide as described in Example 2. Probe labelled proteins were visualized by in-gel fluorescence scanning. The results are shown FIGS. 24A and 24B.

T10 sequence (O14654 whole entry): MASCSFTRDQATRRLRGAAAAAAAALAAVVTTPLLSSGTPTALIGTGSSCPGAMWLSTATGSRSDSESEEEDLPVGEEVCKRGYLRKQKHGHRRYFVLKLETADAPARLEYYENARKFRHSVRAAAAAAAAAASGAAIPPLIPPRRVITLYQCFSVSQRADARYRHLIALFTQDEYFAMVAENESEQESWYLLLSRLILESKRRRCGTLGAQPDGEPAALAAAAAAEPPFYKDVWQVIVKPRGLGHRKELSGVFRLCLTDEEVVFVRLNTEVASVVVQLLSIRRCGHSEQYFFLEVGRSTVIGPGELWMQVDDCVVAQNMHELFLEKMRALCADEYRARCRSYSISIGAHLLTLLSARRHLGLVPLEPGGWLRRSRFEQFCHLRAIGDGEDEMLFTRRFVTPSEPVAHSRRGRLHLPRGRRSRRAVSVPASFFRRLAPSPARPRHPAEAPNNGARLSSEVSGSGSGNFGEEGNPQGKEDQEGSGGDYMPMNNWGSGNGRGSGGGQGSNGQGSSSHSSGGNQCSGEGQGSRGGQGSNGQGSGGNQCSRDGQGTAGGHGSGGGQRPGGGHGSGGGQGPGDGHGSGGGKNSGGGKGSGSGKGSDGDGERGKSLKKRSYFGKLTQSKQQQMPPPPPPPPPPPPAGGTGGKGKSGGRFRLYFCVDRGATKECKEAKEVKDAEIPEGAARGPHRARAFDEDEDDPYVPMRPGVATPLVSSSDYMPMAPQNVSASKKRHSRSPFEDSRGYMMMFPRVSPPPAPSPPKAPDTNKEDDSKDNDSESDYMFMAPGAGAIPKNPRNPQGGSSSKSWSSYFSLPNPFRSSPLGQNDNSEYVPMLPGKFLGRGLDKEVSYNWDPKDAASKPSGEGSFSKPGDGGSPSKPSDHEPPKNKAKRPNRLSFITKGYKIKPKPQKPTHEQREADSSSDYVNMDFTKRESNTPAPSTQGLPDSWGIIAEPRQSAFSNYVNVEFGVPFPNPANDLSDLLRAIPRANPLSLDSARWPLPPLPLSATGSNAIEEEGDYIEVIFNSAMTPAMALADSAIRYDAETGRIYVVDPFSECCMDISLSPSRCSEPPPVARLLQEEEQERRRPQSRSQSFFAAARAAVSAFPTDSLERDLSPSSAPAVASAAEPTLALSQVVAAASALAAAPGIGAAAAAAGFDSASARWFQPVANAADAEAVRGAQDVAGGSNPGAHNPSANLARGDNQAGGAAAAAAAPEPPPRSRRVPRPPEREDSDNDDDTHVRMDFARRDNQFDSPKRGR
T5 sequence (Q9UNZ2 whole entry): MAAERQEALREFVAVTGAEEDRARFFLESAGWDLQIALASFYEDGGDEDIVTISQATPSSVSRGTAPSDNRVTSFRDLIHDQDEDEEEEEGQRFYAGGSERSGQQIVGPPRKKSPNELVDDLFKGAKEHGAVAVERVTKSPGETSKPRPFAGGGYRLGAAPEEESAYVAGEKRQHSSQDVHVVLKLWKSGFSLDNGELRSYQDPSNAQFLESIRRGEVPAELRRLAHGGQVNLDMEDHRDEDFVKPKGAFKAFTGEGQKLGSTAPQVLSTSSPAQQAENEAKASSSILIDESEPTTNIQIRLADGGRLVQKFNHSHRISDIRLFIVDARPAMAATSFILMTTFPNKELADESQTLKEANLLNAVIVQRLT
T13 sequence (P07996 19-1170): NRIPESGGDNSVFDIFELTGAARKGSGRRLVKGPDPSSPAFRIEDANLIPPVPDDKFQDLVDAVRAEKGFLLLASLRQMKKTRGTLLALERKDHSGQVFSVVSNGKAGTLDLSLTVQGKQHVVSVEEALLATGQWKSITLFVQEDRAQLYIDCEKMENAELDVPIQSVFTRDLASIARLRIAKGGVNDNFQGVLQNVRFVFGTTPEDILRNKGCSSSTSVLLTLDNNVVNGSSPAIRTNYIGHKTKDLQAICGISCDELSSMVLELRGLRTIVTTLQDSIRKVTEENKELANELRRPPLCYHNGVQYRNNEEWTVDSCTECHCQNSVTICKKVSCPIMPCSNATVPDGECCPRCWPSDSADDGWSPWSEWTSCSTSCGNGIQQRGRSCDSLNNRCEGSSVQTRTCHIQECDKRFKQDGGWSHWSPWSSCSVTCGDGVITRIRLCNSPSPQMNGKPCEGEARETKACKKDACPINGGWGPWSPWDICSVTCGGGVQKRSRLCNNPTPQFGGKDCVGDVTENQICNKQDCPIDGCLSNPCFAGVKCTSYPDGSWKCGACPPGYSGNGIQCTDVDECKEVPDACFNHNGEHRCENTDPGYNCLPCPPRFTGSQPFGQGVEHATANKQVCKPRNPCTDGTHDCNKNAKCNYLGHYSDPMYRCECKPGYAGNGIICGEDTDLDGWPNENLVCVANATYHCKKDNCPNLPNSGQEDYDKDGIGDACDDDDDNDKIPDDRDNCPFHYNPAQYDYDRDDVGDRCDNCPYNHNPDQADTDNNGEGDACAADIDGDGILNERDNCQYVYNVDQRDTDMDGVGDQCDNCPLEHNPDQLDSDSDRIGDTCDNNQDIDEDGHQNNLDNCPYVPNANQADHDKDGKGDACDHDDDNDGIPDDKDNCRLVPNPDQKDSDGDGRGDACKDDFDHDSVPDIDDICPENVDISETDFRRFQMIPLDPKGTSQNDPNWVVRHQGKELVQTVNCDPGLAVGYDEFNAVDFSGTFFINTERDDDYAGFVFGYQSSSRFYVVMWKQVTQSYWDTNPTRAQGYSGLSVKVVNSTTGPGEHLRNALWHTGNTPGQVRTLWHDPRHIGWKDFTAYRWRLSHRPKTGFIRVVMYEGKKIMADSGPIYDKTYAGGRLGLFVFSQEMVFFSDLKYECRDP
T2 sequence (Q13867 whole entry): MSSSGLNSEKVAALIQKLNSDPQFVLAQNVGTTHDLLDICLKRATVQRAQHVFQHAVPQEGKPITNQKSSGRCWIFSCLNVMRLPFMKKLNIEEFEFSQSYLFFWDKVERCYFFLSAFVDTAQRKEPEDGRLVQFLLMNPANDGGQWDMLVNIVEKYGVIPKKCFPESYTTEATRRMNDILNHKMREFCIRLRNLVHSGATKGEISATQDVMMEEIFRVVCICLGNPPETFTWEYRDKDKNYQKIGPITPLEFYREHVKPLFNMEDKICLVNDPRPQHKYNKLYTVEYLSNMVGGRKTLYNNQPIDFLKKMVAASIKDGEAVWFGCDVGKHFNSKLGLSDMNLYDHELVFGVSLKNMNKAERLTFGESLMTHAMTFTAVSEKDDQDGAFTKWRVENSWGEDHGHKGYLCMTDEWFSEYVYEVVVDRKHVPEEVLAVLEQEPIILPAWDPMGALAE
T7 sequence (Q5JRX3 29-1037): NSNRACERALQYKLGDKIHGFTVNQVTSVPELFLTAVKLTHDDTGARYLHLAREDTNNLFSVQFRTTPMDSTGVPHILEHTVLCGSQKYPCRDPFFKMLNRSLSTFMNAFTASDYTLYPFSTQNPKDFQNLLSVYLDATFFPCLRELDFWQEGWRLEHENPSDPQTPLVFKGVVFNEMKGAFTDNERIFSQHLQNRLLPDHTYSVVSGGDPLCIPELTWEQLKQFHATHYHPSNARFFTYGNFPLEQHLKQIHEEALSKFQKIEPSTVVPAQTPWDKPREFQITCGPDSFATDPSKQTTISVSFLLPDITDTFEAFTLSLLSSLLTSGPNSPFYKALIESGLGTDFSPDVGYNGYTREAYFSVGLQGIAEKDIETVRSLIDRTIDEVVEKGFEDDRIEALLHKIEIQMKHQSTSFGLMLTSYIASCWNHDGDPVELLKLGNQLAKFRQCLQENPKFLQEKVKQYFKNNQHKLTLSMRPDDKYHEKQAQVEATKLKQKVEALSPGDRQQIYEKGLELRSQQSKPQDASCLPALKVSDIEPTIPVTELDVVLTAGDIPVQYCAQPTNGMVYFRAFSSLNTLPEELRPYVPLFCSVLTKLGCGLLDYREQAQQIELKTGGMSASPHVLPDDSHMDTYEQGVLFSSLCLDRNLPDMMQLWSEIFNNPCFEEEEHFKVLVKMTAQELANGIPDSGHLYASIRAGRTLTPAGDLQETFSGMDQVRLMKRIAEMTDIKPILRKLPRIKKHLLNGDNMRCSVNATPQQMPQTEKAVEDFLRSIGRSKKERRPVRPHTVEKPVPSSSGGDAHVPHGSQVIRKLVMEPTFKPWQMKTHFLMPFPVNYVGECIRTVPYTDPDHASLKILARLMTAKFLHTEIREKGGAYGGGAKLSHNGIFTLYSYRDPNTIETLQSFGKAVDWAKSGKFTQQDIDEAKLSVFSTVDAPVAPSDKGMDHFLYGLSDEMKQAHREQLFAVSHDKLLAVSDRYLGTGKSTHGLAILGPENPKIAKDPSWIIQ
T1 sequence (P49189 whole entry): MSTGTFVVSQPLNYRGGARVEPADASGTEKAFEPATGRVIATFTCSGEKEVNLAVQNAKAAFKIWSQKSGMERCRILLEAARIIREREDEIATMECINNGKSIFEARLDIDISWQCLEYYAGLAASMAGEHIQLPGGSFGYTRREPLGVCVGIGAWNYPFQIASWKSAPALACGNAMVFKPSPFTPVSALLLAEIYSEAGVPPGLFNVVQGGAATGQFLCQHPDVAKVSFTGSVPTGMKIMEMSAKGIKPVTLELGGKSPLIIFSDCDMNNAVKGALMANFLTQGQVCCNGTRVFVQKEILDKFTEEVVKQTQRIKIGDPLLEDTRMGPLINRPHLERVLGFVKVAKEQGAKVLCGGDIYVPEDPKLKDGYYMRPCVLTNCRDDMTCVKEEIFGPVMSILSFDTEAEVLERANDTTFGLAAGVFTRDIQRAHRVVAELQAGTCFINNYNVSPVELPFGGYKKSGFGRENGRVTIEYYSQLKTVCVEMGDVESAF
T6 sequence (Q9H2U2 33-334): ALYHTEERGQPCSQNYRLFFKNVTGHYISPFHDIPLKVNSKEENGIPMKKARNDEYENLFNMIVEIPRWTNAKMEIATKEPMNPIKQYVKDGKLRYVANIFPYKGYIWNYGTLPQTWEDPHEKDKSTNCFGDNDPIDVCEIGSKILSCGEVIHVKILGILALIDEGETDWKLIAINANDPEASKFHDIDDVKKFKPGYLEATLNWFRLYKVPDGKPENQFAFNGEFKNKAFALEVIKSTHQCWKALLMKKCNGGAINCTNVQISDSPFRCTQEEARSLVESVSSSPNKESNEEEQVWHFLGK

C#CCNN.Cl [probe 1, prop-2-yn-1-ylhydrazine hydrochloride]
enrichment ratioavg ([1]; probe 1 3 mM 0.5 h vs probe 3): 12
competition ratioavg ([1]; probe 1 vs probe 1+10x probe 3): 2
enrichment ratioavg ([2]; probe 1 3 mM 0.5 h vs probe 3): 9
competition ratioavg ([2]; probe 1 vs probe 1+10x probe 3): 1
enrichment ratioavg ([3]; probe 1 3 mM 0.5 h vs probe 3): 13
competition ratioavg ([3]; probe 1 vs probe 1+10x probe 3): 3
enrichment ratioavg ([4]; probe 1 3 mM 0.5 h vs probe 3): 11
competition ratioavg ([4]; probe 1 vs probe 1+10x probe 3): 3
enrichment ratioavg ([5]; probe 1 3 mM 0.5 h vs probe 3): 8
competition ratioavg ([5]; probe 1 vs probe 1+10x probe 3): 1
enrichment ratioavg ([6]; probe 1 3 mM 0.5 h vs probe 3): 7
competition ratioavg ([6]; probe 1 vs probe 1+10x probe 3): 1
enrichment ratioavg ([7]; probe 1 3 mM 0.5 h vs probe 3): 12
competition ratioavg ([7]; probe 1 vs probe 1+10x probe 3): 2
enrichment ratioavg ([8]; probe 1 3 mM 0.5 h vs probe 3): 20
competition ratioavg ([8]; probe 1 vs probe 1+10x probe 3): 1
enrichment ratioavg ([9]; probe 1 3 mM 0.5 h vs probe 3): 10
competition ratioavg ([9]; probe 1 vs probe 1+10x probe 3): 4
enrichment ratioavg ([10]; probe 1 3 mM 0.5 h vs probe 3): 20
competition ratioavg ([10]; probe 1 vs probe 1+10x probe 3): 1
enrichment ratioavg ([11]; probe 1 3 mM 0.5 h vs probe 3): 16
competition ratioavg ([11]; probe 1 vs probe 1+10x probe 3): 4
enrichment ratioavg ([12]; probe 1 3 mM 0.5 h vs probe 3): 6
competition ratioavg ([12]; probe 1 vs probe 1+10x probe 3): 2
enrichment ratioavg ([13]; probe 1 3 mM 0.5 h vs probe 3): 16
competition ratioavg ([13]; probe 1 vs probe 1+10x probe 3): 1

C#CCCNC(=O)c1ccc(NN)cc1.Cl [probe 2, N-(but-3-yn-1-yl)-4-hydrazinylbenzamide hydrochloride]
labelling of proteins in vivo [14]: can be used to label and profile proteins in vivo
